Assay: gradient 5% acetonitrile 3 min, to 50% in 2 min, to 85% in 15 min, held 3 min, 100 µL/min
Details: column: Zorbax Extend-C18 2.1 x 50 mm; eluents: water / acetonitrile, 0.1% formic acid
Outline: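 In both positive and negative ionization mode, a quadrupole time-of-flight mass spectrometer coupled to HPLC analyzed pure standards run in mixtures of ~100 molecules. The Zorbax Extend-C18 column (2.1 × 50 mm, 1.8 μm) was operated at 100 μL/min with water and acetonitrile, each containing 0.1% formic acid. The dead volume was 40 μL and the dwell volume 900 μL. Retention time came from adduct peaks that were computationally picked and individually inspected by hand.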

SMILES | RP-LC retention time [s]
COc1cccc(CNC(=O)C2(C)CCCN(C(=O)Nc3ccc(C)c(Cl)c3)C2)c1 (configuration not stated) | 982
O=C(O)c1cnc(N2CCOCC2)nc1-c1cccnc1 | 569
Cc1ccc(S(=O)(=O)N2CCC(C(=O)NCc3csc(-c4ccccc4)n3)CC2)c(C)c1 | 996
COc1cccc(NC(=O)C2CCN(S(C)(=O)=O)c3cc(Cl)ccc3O2)c1 (configuration not stated) | 966
COCCCNC(=O)Cn1nc(C)c2nn(-c3ccc(F)cc3)c(-n3cccc3)c2c1=O | 795
Cc1nnc2ccc(S(=O)(=O)Nc3ccc4c(c3)OCO4)cn12 | 669
CCc1cccc(NC(=O)Nc2cnn(-c3ncc(N4CCCC4)cn3)c2)c1 | 749
COCCN1C(=O)CC[C@]2(C(=O)N(C)Cc3cccnc3)CCCC[C@@H]12 | 544
COc1ccc(NC(=O)NCCc2cn(C)c3ncccc23)c(OC)c1 | 640
Nc1cc(C2CCN(S(=O)(=O)c3cccc(Br)c3)CC2)no1 | 824
Cc1noc(-c2ccc(=O)n(CC(=O)NC3CCc4ccccc43)c2)n1 (configuration not stated) | 669
CCC(C)NC(=O)CN1c2ccc(F)cc2-c2ccccc2S1(=O)=O (configuration not stated) | 870
COc1ccc(NC(=O)C2CCN(S(C)(=O)=O)c3ccccc3O2)cc1Cl (configuration not stated) | 921
CN(C)C(=O)c1ccc(-c2nnc3ccc(NC(=O)C4CCC4)cn23)cc1 | 664
Cc1noc(C)c1CCC(=O)N1CCCCC1c1nncn1C (configuration not stated) | 607
COc1ccc(-c2cc3n(n2)C(NC2CC2)CNC3=O)cc1 (configuration not stated) | 683
Cc1cnc(-c2ccccc2)n1C1CCCN(S(=O)(=O)c2ccc3c(c2)OCCO3)C1 (configuration not stated) | 712
CC(Oc1ccccc1)C(=O)NCc1nnnn1-c1ccc(Cl)cc1 (configuration not stated) | 824
COc1cc(/C=C2\SC(=O)N(CC(=O)Nc3nccs3)C2=O)cc(OC)c1OC | 777
Cc1ccc(NC(=O)C2CCCN2S(=O)(=O)c2cc3c(cc2Cl)NC(=O)CO3)cc1F (configuration not stated) | 844
CN(C)C[C@@H]1CN(S(C)(=O)=O)C[C@H]1NC(=O)COc1ccc(Cl)cc1 | 629
Cc1cc2c(c(=O)n(-c3ccccc3)c(=O)n2CC(=O)Nc2ccc(C(F)(F)F)cc2)n1C | 927
O=C(C1CC1)N1CCCCC1c1nc(-c2cnccn2)no1 (configuration not stated) | 638

SMILES | RP-LC retention time [s]
CC(C)Oc1ccccc1CN1CCC2(CC1)CN(C)CC2c1nnc(C(C)C)o1 (configuration not stated) | 569
Cc1ccc(CC(=O)NC2CCN(c3ccccc3)C2=O)cc1 (configuration not stated) | 797
COC(=O)c1cnc2nc(C)ccc2c1Nc1cccc(Br)c1 | 718
CC(C(=O)N1CCN(c2cc(-c3ccc(Cl)cc3)[nH]n2)CC1)c1ccccc1 (configuration not stated) | 921
Cc1nc2cc(-c3noc(/C=C/c4ccco4)n3)ccc2n(C2CCCC2)c1=O | 1280
Cc1noc(C)c1S(=O)(=O)N1CC(c2nc(Cc3cccnc3)no2)C1 | 588
COc1ccc(Nc2n[nH]nc2C(=O)Nc2ccccc2Br)cc1 | 1050
CCCNc1cc(N2CCC(CCC(=O)N3CCC(C(=O)OCC)CC3)CC2)ncn1 | 664
Cc1ccc(-c2nccn3cc(C(=O)N4CCOCC4)nc23)cc1 | 748
CCOc1ccc(OCC)c(N2C=C(C#N)S(=O)(=O)c3cc(F)ccc32)c1 | 1030
Cc1cccc(OCC(=O)NC2CCN(Cc3c(C)noc3C)CC2)c1 | 622
COc1ccccc1-c1nc(SCC(=O)N2CCC(C(N)=O)CC2)n[nH]1 | 614
Cc1ccc(CN2CCC(n3c(C)cnc3-c3cccnc3)C2)s1 (configuration not stated) | 546
O=C(c1ccccc1F)N1CCC(COCc2ccccc2)CC1 | 945
COc1ccc(Cl)cc1NS(=O)(=O)c1cc(-c2nc(C(C)(C)C)cs2)cs1 | 1350
CCCNC(=O)CSc1ncccc1C(=O)O | 599
O=C(O)C1CCCN(CCC=C(c2ccccc2)c2ccccc2)C1 (configuration not stated) | 783
CCNc1nc(C)cc(N2CCN(C(=O)Nc3ccc(C)cc3C)CC2)n1 | 656
COc1ccc(CNC(=O)C2CCCN(c3nccnc3Sc3ccc(C)cc3)C2)c(OC)c1 (configuration not stated) | 792
O=C(c1csc(N2CCCC2)n1)N1CCOCC1 | 628
O=C(Nc1cc(F)ccc1F)C1CCCN(c2nc3ccccc3nc2C(F)(F)F)C1 (configuration not stated) | 1270
NC(=O)c1ccc(I)c([N+](=O)[O-])c1 | 745
O=C(Nc1ccc(F)c(Cl)c1)N1CCC(OC2CCN(Cc3ccccc3)CC2)CC1 | 710

SMILES | RP-LC retention time [s]
Cc1cccc(-c2nc(C)c3c(n2)N(Cc2ccco2)C(=O)CC3)c1 | 1110
O=c1n(Cc2ccccc2F)nc2ccc(S(=O)(=O)N3CCOCC3)cn12 | 788
COc1ccc2[nH]c3c(c2c1)CCN1C(=O)N(c2cccc(Cl)c2)C(=O)C31C (configuration not stated) | 1030
Cc1ccc(-n2nc(N3CCCC(C(=O)NCc4ccc(F)cc4)C3)ccc2=O)cc1Cl (configuration not stated) | 929
CCc1nc2cc(N3CCCC(C(=O)Nc4ccc(OC)cc4OC)C3)cnc2nc1CC (configuration not stated) | 934
CN(C)C(=O)c1csc(S(=O)(=O)N2CCC(C(=O)NC3CCCCC3)CC2)c1 | 720
COC(=O)c1cc2c(=O)n(CCc3ccc(OC)c(OC)c3)ccc2nc1C | 769
COc1cc(-c2nc3nc(C)cc(C)n3c2Nc2ccc(Cl)cc2)ccc1O | 656
CCn1c(=O)c(N2CCC(C(=O)NCCN3CCCCCC3)CC2)nc2cccnc21 | 646
Cc1ccc(C(=O)N2CCCC(c3ccnc(Nc4ccc(F)cc4)n3)C2)s1 (configuration not stated) | 1020
Cc1ccc(Nc2c(-c3cccc(Br)c3)nc3cccc(C)n23)cc1 | 826
CCC(C)(C)C(=O)NC1CCN(C2=NS(=O)(=O)C(c3ccc(C(C)C)cc3)=C2C)CC1 | 1020
CCN(c1cccc(C)c1)S(=O)(=O)c1cc(-c2[nH]ncc2C(=O)N2CCCC2)oc1C | 819
COc1ccc(C2(C(=O)N3CCCC(Cn4cnc5cccnc54)C3)CC2)cc1 (configuration not stated) | 656
N#Cc1ccc(CN2C[C@@H](CO)[C@H](c3nc(C4CC4)no3)C2)cc1 | 600
Cc1cc(F)ccc1NC(=O)C1(C)Oc2cccnc2NC1=O (configuration not stated) | 687
COc1ccc(-c2nnc(-c3ccc(Cl)c(S(=O)(=O)N4CCCCC4)c3)o2)cc1 | 1100
Cc1cccc(N2CCN(C(=O)C3=CCN(Cc4cccc(F)c4)CC3)CC2)c1 | 690
CC(C)NC(=O)C1CCN(c2cncnc2N(C)C)CC1 | 580
CCN1C(=O)C2(CCN(C(=O)CC(C)C)CC2)c2ccccc21 | 818
Cc1ccc(NC(=O)N2CCC(n3cnnc3C3CC3)C2)cc1C (configuration not stated) | 665

Reference: the METLIN SMRT retention time set (Domingo-Almenara et al. 2019)
